Source: patent publication US11976091B2, “Terpene glycoside derivatives and uses thereof” (Firmenich SA, priority 2018, dated 2024)

Assays:
[1] = system: panel of 8 trained people; test: Sensory evaluation of taste properties (descriptive), samples in 4% w/w sucrose solution; type: in vivo; details: for Description (taste properties: sweet, licorice and sweet lingering): panel of 8 trained people
Method: A composition comprising Compound I was generated according to the methods described in Example 1. The composition was dissolved in a 4% w/w sucrose solution, at a final concentration of 30 ppm. A panel of 8 trained people evaluated the test solution, as well as samples comprising rebaudioside A, rebaudioside D, or rebaudioside M for taste properties (sweet, licorice and sweet lingering).

[2] = system: panel of 8 trained people; test: Sensory evaluation of taste properties on a scale of −5 to 5 versus 4% w/w sucrose reference solution; type: in vivo; details: for Licorice / Sweet / Sweet Lingering: 30 ppm in 4% w/w sucrose solution, scale −5 to 5 (−5 no effect, 5 extremely strong effect, 0 = 4% w/w sucrose reference); for tastes enhanced in the 4% sucrose base: 30 ppm in 4% sucrose base
Method: In another experiment, a composition comprising compound of formula I was generated according to the methods described in Example 1. The composition was dissolved in a 4% w/w sucrose solution. A panel of 8 trained people evaluated the test solutions for taste properties (sweet, licorice and sweet lingering) on a scale of −5 to 5 (−5 denoted no effect and 5 denoted extremely strong effect, 0 being the intensity of a reference water solution containing either (i) 4% w/w sucrose solution. The results are shown in the table below.

[3] = 30 ppm in 4% w/w sucrose solution

Structure (SMILES)	Description (taste properties: sweet, licorice and sweet lingering) [1, 3]	Licorice [2]	Sweet [2]	Sweet Lingering [2]	effect for licorice and sweet lingering tastes ([2]; dosage of 30 ppm in 4% sucrose base)	effect on sweet intensity in the 4% sucrose base ([2]; dosage of 30 ppm, 95% of confidence level)	tastes enhanced in the 4% sucrose base [2]	licorice taste compared to the other samples [1, 3]	lingering taste compared to the others ([1]; 30 ppm test samples in 4% w/w sucrose solution)
C=C1C[C@@]23CC[C@H]4[C@@](C)(CCC[C@@]4(C)C(=O)O[C@@H]4OC(CO[C@@H]5OC(CO)[C@@H](O)C(O)C5O)[C@@H](O)C(O)C4O)[C@@H]2CC[C@]1(O[C@@H]1OC(CO)[C@@H](O)C(O[C@@H]2OC(CO)[C@@H](O)C(O)C2O)C1O[C@@H]1OC(CO)[C@@H](O)C(O)C1O)C3 (some centres unmarked) [Compound I]	Sweet, licorice, lingering	1.4	1.1	0.4	without any significant effect	significantly enhanced			
C=C1C[C@@]23CC[C@H]4[C@@](C)(CCC[C@@]4(C)C(=O)O[C@@H]4O[C@H](CO)[C@@H](O)[C@H](O)[C@H]4O)[C@@H]2CC[C@]1(O[C@@H]1O[C@H](CO)[C@@H](O)[C@H](O[C@@H]2O[C@H](CO)[C@@H](O)[C@H](O)[C@H]2O)[C@H]1O[C@@H]1O[C@H](CO)[C@@H](O)[C@H](O)[C@H]1O)C3 [Reb A, rebaudioside A]	Sweet, licorice, lingering, slightly	1.3	1.5	0.5			enhancing sweet and sweet lingering tastes		
C=C1C[C@@]23CC[C@H]4[C@@](C)(CCC[C@@]4(C)C(=O)O[C@@H]4O[C@H](CO)[C@@H](O)[C@H](O)[C@H]4O[C@@H]4O[C@H](CO)[C@@H](O)[C@H](O)[C@H]4O)[C@@H]2CC[C@]1(O[C@@H]1O[C@H](CO)[C@@H](O)[C@H](O[C@@H]2O[C@H](CO)[C@@H](O)[C@H](O)[C@H]2O)[C@H]1O[C@@H]1O[C@H](CO)[C@@H](O)[C@H](O)[C@H]1O)C3 [Reb D, rebaudioside D]	Sweet, lingering, licorice	1.3	1.5	0.4					
C=C1C[C@@]23CC[C@H]4[C@@](C)(CCC[C@@]4(C)C(=O)O[C@@H]4O[C@H](CO)[C@@H](O)[C@H](O[C@@H]5O[C@H](CO)[C@@H](O)[C@H](O)[C@H]5O)[C@H]4O[C@@H]4O[C@H](CO)[C@@H](O)[C@H](O)[C@H]4O)[C@@H]2CC[C@]1(O[C@@H]1O[C@H](CO)[C@@H](O)[C@H](O[C@@H]2O[C@H](CO)[C@@H](O)[C@H](O)[C@H]2O)[C@H]1O[C@@H]1O[C@H](CO)[C@@H](O)[C@H](O)[C@H]1O)C3 [Reb M, rebaudioside M]	Licorice, sweet, lingering	1.3	1.6	0.8			enhancing all sweet, licorice and sweet lingering tastes	stronger licorice taste	
OC[C@H]1O[C@@](CO)(O[C@H]2O[C@H](CO)[C@@H](O)[C@H](O)[C@H]2O)[C@@H](O)[C@@H]1O [Sucrose, sucrose]	Sweet, slightly lingering								weaker lingering taste than others
